Assay: ENG and E2 solubility, diffusion coefficient and permeability in EVA copolymers (two-layer polymer slab, fit with Fick's 2nd law)
Details: ENG
Procedure: For the determination of the solubility concentration and diffusion coefficient a method was developed. The method consists in preparing polymer slab composites with one layer highly loaded with active ingredient (60 wt %) on top of a layer of placebo polymer. The two layers were first pressed separately in a hot press and thereafter combined, also using the press, into a two layer structure. The diffusion of the active ingredient from the loaded layer through the placebo layer is measured in time, for the active ingredient/polymer combination adequate analysis method. Thereafter the experimental diffusion data is fitted with a mathematical model based on Fick's 2nd law of diffusion in one direction. The differential equation is solved using trigonometrical series with the solubility concentration and diffusion coefficient as only unknown variables.

SMILES: C#C[C@]1(O)CC[C@H]2[C@@H]3CCC4=CC(=O)CC[C@@H]4[C@H]3C(=C)C[C@@]21CC [ENG, etonogestrel]
- Cs (solubility in EVA copolymer) (VA % 9): 0.4 mg/g
- D (diffusion coefficient in EVA copolymer) (VA % 9): 2.29 ×10^−13 m^2/s
- Cs (solubility in EVA copolymer) (VA % 15): 0.9 mg/g
- D (diffusion coefficient in EVA copolymer) (VA % 15): 3.17 ×10^−13 m^2/s
- Cs (solubility in EVA copolymer) (VA % 28): 3.22 mg/g
- D (diffusion coefficient in EVA copolymer) (VA % 28): 4.80 ×10^−13 m^2/s
